This is an account of results in PubChem BioAssay (NCI).

What all share (test): DTP human tumour cell line panel, 48 h
The test system of test [1] is 786-0 renal.
For test [2], the system named is LOX IMVI melanoma.
Test [3] deals with HL-60(TB) leukemia.
The test system of test [4] is MDA-MB-435.
Test [5] has as its system OVCAR-5 ovarian.
The test system of test [6] is SW-620 colon.
In test [7] the test system is PC-3 prostate.
Test [8] deals with A498 renal.
In test [9] the test system is U251 CNS.
Test [10] concerns HCT-116 colon.

Several values for one entry are separate records, joined by “and”; a condition that tells them apart may be missing. Identical values can stand only once.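 Step 1: Grow cells in 96-well plates. Step 2: Expose to compound for 48 hours at 5 concentrations. Step 3: Interpolate endpoints linearly; if unreached, use highest concentration. At the GI50, growth is halved. At the TGI there is no net growth.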

For orientation: TGI means the concentration at which net growth stops. A high value points to less potent growth arrest. On to `Nc1nn2c(nc(N)c3c(N)[nH]nc32)c1N=Nc1ccc(Br)cc1`, for which the TGI in test [1] is more than 95.3 µM; in test [2], 22.6 µM; in [3], 77.9 µM; in test [4], more than 27.9 µM; in test [5], more than 96.2 µM; in [6], more than 100 µM. In addition, the TGI in test [7] is more than 100 µM; in test [8], more than 100 µM; in test [9], 30.7 µM; in test [10], more than 100 µM.
In general, GI50 refers to the concentration at which growth is held to half of that of the control. For `N#Cc1c(-c2ccccc2)[nH]c(=O)n(C2OC(CO)C(O)C(O)C2O)c1=O` (configuration not stated), the TGI in [1], in test [3], in test [4], in test [5], in test [6] and in [7] was more than 100 µM each time. The TGI in [8], in test [9] and in test [10] was more than 100 µM each time. In addition, the GI50 in test [3] is 47.4 µM and > 100 µM.
For the compound `Nc1nc(N)c2cc(NCc3ccc(Cl)c(Cl)c3)ccc2n1`, the GI50 in test [3] is 1.35 µM; in test [4] it was 1.11 µM; in test [5], 1.02 µM; in test [6], 0.431 µM; in test [7], 0.623 µM; in test [8], 1.16 µM. Further, the GI50 in test [9] was 1.12 µM; in test [10] it was 0.391 µM. Besides, the TGI in test [3] was 2.93 µM; in [4], 2.4 µM; in [5], 2.19 µM; in [6], 1.59 µM; in test [7], 1.96 µM; in test [8], 2.41 µM. Further, the TGI in test [9] is 2.37 µM; in test [10] it was 1.58 µM.
For `CCOC(=O)CC(=O)Nc1cccc2[nH]cnc12`, the TGI in test [1], in [3], in test [4], in test [5], in test [6] and in test [7] was more than 100 µM each time. The TGI in test [8], in [9] and in test [10] was more than 100 µM throughout.
On to `COc1cc2c(=O)cnoc2cc1O`, for which the TGI in test [1], in test [3], in test [4], in [5], in [6] and in [7] was more than 100 µM each time. Further, the TGI in test [8] and in test [9] was more than 100 µM each time.
In the case of `CCOC(=O)/C(C#N)=C/c1ccnc2ccccc12`, the TGI was more than 100 µM in [1]; 72.1 µM in test [2]; more than 100 µM in test [4]; more than 100 µM in [5]; more than 100 µM in [6]; more than 100 µM in test [7]. The TGI in test [8], in test [9] and in test [10] was more than 100 µM in each case.
In the case of `N#Cc1c(-c2ccccc2)c(N=Nc2ccc(Cl)cc2)c(=O)n2c1[nH]c1ccccc12`, the TGI in test [1] was 73.2 µM; in test [2], more than 100 µM; in test [4], more than 100 µM; in test [5], more than 100 µM; in test [6], more than 100 µM; in test [7], more than 100 µM. In addition, the TGI in test [8], in [9] and in test [10] was more than 100 µM throughout.
For `CN(C)CCCn1nc(N)c2nc3cc(Cl)ccc3nc21`, the TGI in test [1], in test [2], in test [4], in test [5], in test [6] and in [7] was more than 100 µM each time. The TGI in test [8], in test [9] and in test [10] was more than 100 µM in each case.
In the case of `CC1=NN(c2nc(N)nc(CC#N)n2)C(C)(C)C1`, the TGI in [1], in test [2], in test [3], in test [4], in [6] and in test [7] was more than 100 µM each time. The TGI in test [8], in test [9] and in test [10] was more than 100 µM in each case.
With `CCOC(=O)CNc1nc(=O)c2c(=O)oc(Cl)cc2o1`, the TGI in [1] stood at 21.9 µM; in test [2], 22.3 µM; in test [4] it was 35.4 µM; in test [5] it was 38.7 µM; in [6], 85.6 µM; in test [7], 26 µM. Moreover, the TGI in test [8] was determined as 38 µM; in test [9] it was 85.3 µM; in test [10], 24.4 µM.
For the compound `O=c1c(=O)c2c(Br)sc(Br)c2c1=O`, the TGI in test [1] was 56.5 µM; in test [2] it was 36.4 µM; in [4], 37.7 µM; in [5] it was 39.8 µM; in test [6] it was 31.8 µM; in [7] it was 36.5 µM. The TGI was more than 100 µM in [8], 61 µM in test [9] and 37.8 µM in test [10].
Consider `Cc1noc(NC2=CC(=O)C(=O)c3ccccc32)c1C`, for which the TGI in test [1] is more than 100 µM; in [2], more than 100 µM; in [3] it was 52.2 µM; in [4], 0.397 µM; in test [5], more than 100 µM; in test [7], more than 100 µM. In addition, the TGI in test [8], in test [9] and in [10] was more than 100 µM each time.
As for `COc1ccc(C2C3COc4ccccc4C3=NN2c2ccccc2)cc1` (configuration not stated), the TGI in [1], in test [2], in test [4], in test [5], in test [6] and in test [7] was more than 100 µM in each case. For the same compound, the TGI in [8], in test [9] and in [10] was more than 100 µM in each case.
Consider `C=CCO[C@]1(CC=C)C(=O)C(=O)OC1C1COC(C)(C)O1` (some centres not stated), for which the TGI was more than 100 µM in [1]; 31.5 µM in test [2]; more than 100 µM in [4]; more than 100 µM in [5]; 35.4 µM in test [6]; more than 100 µM in test [7]. For the same compound, the TGI is more than 100 µM in test [8], more than 100 µM in test [9] and 74.7 µM in [10].
On to `O=C(O)Cc1ccc2[nH]c(O)c(C3=Nc4ccccc4C3=O)c2c1`, for which the TGI in test [1], in test [2], in [4], in [5], in [6] and in test [7] was more than 100 µM throughout. Further, the TGI in test [8] was 98.7 µM; in [9], more than 100 µM; in test [10], 68.5 µM.
As to `C/C=C/C1OC(O)(C(C)C(O)[C@H](C)C2OC(=O)/C(OC)=C/C(C)=C/[C@@H](C)[C@@H](O)[C@@H](C)C(O)C(C)C/C(C)=C/C=C/C2OC)C[C@@H](OC2CC(O)C(OC(N)=O)C(C)O2)C1C` (some centres not stated), the TGI in test [1] is 1.42 µM; in [2] it was less than 0.01 µM; in [4], 2.58 µM; in test [5], 3.14 µM; in test [6] it was 1.01 µM; in test [7], 0.625 µM. In addition, the TGI in test [8] is 3.68 µM; in test [9] it was 8.91 µM; in test [10] it was 1.42 µM.
Turning to `COc1c(O)cc2c(c1O)C(=O)/C(=C/c1ccc(O)cc1)CO2`, the TGI is 75.5 µM in test [1]; 53.1 µM in [2]; more than 100 µM in test [3]; more than 100 µM in [4]; 68.6 µM in test [5]; 83.4 µM in [6]. In addition, the TGI in [7], in [8] and in [9] was more than 100 µM each time.
As for `CC(C)C(/C=C/c1ccc(Cl)c(Cl)c1)=N\NC(=O)N/N=C(/C=C/c1ccc(Cl)c(Cl)c1)C(C)C`, the TGI in test [1], in [2], in test [3], in test [4], in test [5] and in test [6] was more than 100 µM throughout. For the same compound, the TGI in [7], in [8] and in [9] was more than 100 µM each time.
As for `C=C1C(=O)O[C@H]2[C@@H](O)[C@H](C)CCC[C@]3(C)O[C@H]3CC[C@@]3(C)O[C@@H]3C[C@@H]12`, the TGI in test [1] was determined as 12.5 µM; in test [3], 2.03 µM; in test [4], 10 µM; in test [5] it was 12.5 µM; in test [6], 5.05 µM; in test [7] it was 14.5 µM. In addition, the results for the TGI in test [8], in test [9] and in test [10] were 14.4 µM, 15.7 µM and 6.52 µM, respectively.
In the case of `CN(C)C(=O)OC(Cn1cncn1)(Cn1cncn1)c1ccc(Cl)cc1Cl`, the TGI in [1], in [2], in test [3], in test [4], in test [5] and in test [6] was more than 100 µM in each case. The TGI in [7], in test [8] and in test [9] was more than 100 µM each time.
Turning to `O=C1c2cc(Cl)ccc2NC(=NCCCl)C2CSCN12` (configuration not stated), the TGI in test [1], in test [2], in [4], in test [5], in test [6] and in test [7] was more than 100 µM in each case. For the same compound, the TGI in test [8], in test [9] and in [10] was more than 100 µM in each case.
